Reference: ChEMBL document CHEMBL5154709, “Tetrazole derivatives bearing benzodiazepine moiety-synthesis and action mode against virulence of Candida albicans” (Eur J Med Chem, 2022)
Converted amounts (≈) assume the structure as drawn.

Columns and labels:
Candida albicans [1] = experiment: Antifungal activity against Candida albicans assessed as inhibition of fungal growth measured after 48 hrs in presence of exogenous ergosterol by M27-A3 based broth microdilution; type: functional
Candida albicans [2] = experiment: Antifungal activity against Candida albicans assessed as inhibition of fungal growth measured after 48 hrs by M27-A3 based broth microdilution; type: functional
[3] = Toxicity in Galleria mellonella larvae assessed as melanization of larvae at 0.23 ug/ml measured every 24 hrs upto 5 days relative to control; settings: 120 h, at 0.23 µg/mL, time < 5 day
Candida albicans [4] = experiment: Antifungal activity against Candida albicans SC5314 assessed as inhibition of fungal growth at 16 ug/ml incubated for 48 hrs by M27-A3 based microdilution method relative to control; type: functional
Candida albicans [5] = experiment: Antifungal activity against Candida albicans SC5314 assessed as inhibition of fungal growth at 1 ug/ml incubated for 18 hrs by M27-A3 based microdilution method relative to control; type: functional
Candida albicans [6] = experiment: Antifungal activity against Candida albicans SC5314 assessed as inhibition of fungal growth at 0.25 ug/ml incubated for 48 hrs by M27-A3 based microdilution method relative to control; type: functional
Candida albicans [7] = experiment: Antifungal activity against Candida albicans SC5314 assessed as inhibition of fungal growth at 0.03125 ug/ml incubated for 48 hrs by M27-A3 based microdilution method relative to control; type: functional
Candida albicans [8] = experiment: Antifungal activity against Candida albicans SC5314 assessed as inhibition of fungal growth at 16 ug/ml incubated for 18 hrs by M27-A3 based microdilution method relative to control; type: functional
Candida albicans [9] = experiment: Antifungal activity against Candida albicans SC5314 assessed as inhibition of fungal growth at 4 ug/ml incubated for 48 hrs by M27-A3 based microdilution method relative to control; type: functional
Candida albicans [10] = experiment: Antifungal activity against Candida albicans SC5314 assessed as inhibition of fungal growth at 4 ug/ml incubated for 18 hrs by M27-A3 based microdilution method relative to control; type: functional
Candida albicans [11] = experiment: Antifungal activity against Candida albicans SC5314 assessed as inhibition of fungal growth at 2 ug/ml incubated for 48 hrs by M27-A3 based microdilution method relative to control; type: functional
Candida albicans [12] = experiment: Antifungal activity against Candida albicans SC5314 assessed as inhibition of fungal growth at 2 ug/ml incubated for 18 hrs by M27-A3 based microdilution method relative to control; type: functional
Candida albicans [13] = experiment: Antifungal activity against Candida albicans SC5314 assessed as inhibition of fungal growth at 1 ug/ml incubated for 48 hrs by M27-A3 based microdilution method relative to control; type: functional
Candida albicans [14] = experiment: Antifungal activity against Candida albicans SC5314 assessed as inhibition of fungal growth at 0.125 ug/ml incubated for 48 hrs by M27-A3 based microdilution method relative to control; type: functional
Candida albicans [15] = experiment: Antifungal activity against Candida albicans SC5314 assessed as inhibition of fungal growth at 0.0625 ug/ml incubated for 18 hrs by M27-A3 based microdilution method relative to control; type: functional
Candida albicans [16] = experiment: Antifungal activity against Candida albicans SC5314 assessed as inhibition of fungal growth at 0.5 ug/ml incubated for 18 hrs by M27-A3 based microdilution method relative to control; type: functional
Candida albicans [17] = experiment: Antifungal activity against Candida albicans SC5314 assessed as inhibition of fungal growth at 0.125 ug/ml incubated for 18 hrs by M27-A3 based microdilution method relative to control; type: functional
Candida albicans [18] = experiment: Antifungal activity against Candida albicans SC5314 assessed as inhibition of fungal growth at 0.5 ug/ml incubated for 48 hrs by M27-A3 based microdilution method relative to control; type: functional
Candida albicans [19] = experiment: Antifungal activity against Candida albicans SC5314 assessed as inhibition of fungal growth at 8 ug/ml incubated for 18 hrs by M27-A3 based microdilution method relative to control; type: functional
Candida albicans [20] = experiment: Antifungal activity against Candida albicans SC5314 assessed as inhibition of fungal growth at 0.25 ug/ml incubated for 18 hrs by M27-A3 based microdilution method relative to control; type: functional
Candida albicans [21] = experiment: Antifungal activity against Candida albicans SC5314 assessed as inhibition of fungal growth at 8 ug/ml incubated for 48 hrs by M27-A3 based microdilution method relative to control; type: functional
Candida albicans [22] = experiment: Antifungal activity against Candida albicans SC5314 assessed as inhibition of fungal growth at 0.03125 ug/ml incubated for 18 hrs by M27-A3 based microdilution method relative to control; type: functional
[23] = Toxicity in Galleria mellonella larvae assessed as melanization of larvae at 0.05 ug/ml measured every 24 hrs upto 5 days relative to control; settings: 120 h, at 0.05 µg/mL, time < 5 day
Candida albicans [24] = experiment: Antifungal activity against Candida albicans SC5314 assessed as inhibition of fungal growth at 0.0625 ug/ml incubated for 48 hrs by M27-A3 based microdilution method relative to control; type: functional

Structure (SMILES)	inhibition at 16 µg/mL (Candida albicans [4]) [%]	inhibition at 1 µg/mL (Candida albicans [5]) [%]	inhibition at 0.25 µg/mL (Candida albicans [6]) [%]	inhibition at 0.03125 µg/mL (Candida albicans [7]) [%]	inhibition at 16 µg/mL (Candida albicans [8]) [%]	inhibition at 4 µg/mL (Candida albicans [9]) [%]	inhibition at 4 µg/mL (Candida albicans [10]) [%]	inhibition at 2 µg/mL (Candida albicans [11]) [%]	inhibition at 2 µg/mL (Candida albicans [12]) [%]	inhibition at 1 µg/mL (Candida albicans [13]) [%]	inhibition at 0.125 µg/mL (Candida albicans [14]) [%]	inhibition at 0.0625 µg/mL (Candida albicans [15]) [%]	inhibition at 0.5 µg/mL (Candida albicans [16]) [%]	inhibition at 0.125 µg/mL (Candida albicans [17]) [%]	inhibition at 0.5 µg/mL (Candida albicans [18]) [%]	inhibition at 8 µg/mL (Candida albicans [19]) [%]	inhibition at 0.25 µg/mL (Candida albicans [20]) [%]	inhibition at 8 µg/mL (Candida albicans [21]) [%]	inhibition at 0.03125 µg/mL (Candida albicans [22]) [%]	inhibition at 0.0625 µg/mL (Candida albicans [24]) [%]	further results
CCC(C)n1ncn(-c2ccc(N3CCN(c4ccc(OCC5COC(Cn6cncn6)(c6ccc(Cl)cc6Cl)O5)cc4)CC3)cc2)c1=O (centres undefined) [ITRACONAZOLE]																					MIC (Candida albicans [1]): 0.5 µg/mL; MIC (Candida albicans [2]): 0.32 µg/mL (≈ 0.453 µM); Activity [3]: 13%
C[C@@H]1[C@H](O)[C@@H](C)/C=C/C=C/C=C/C=C/C=C/C=C/C=C/[C@H](O[C@@H]2O[C@H](C)[C@@H](O)[C@H](N)[C@@H]2O)C[C@@H]2O[C@](O)(C[C@@H](O)C[C@@H](O)[C@H](O)CC[C@@H](O)C[C@@H](O)CC(=O)O[C@H]1C)C[C@H](O)[C@H]2C(=O)O [AMPHOTERICIN B]	100	100	100	100	100	100	100	100	100	100	100	100	100	100	100	100	100	100	100	100	Activity [23]: 10%
COc1ccc(-n2nnnc2SCCCCl)cc1	99.8	99.9	99.9	99.7	99.9	99.8	99.8	99.8	100	99.8	99.9	99.9	99.9	99.9	99.7	99.8	100	99.8	99.8	99.8	
Cc1ccc(-c2nnn(CCCN3C(=O)CN=C(c4ccccc4Br)c4cc(F)ccc43)n2)cc1	95.4	93.8	98.2	100	100	95.4	94.7	96.4	98.1	95	97.2	99.2	92.3	98.5	95.8	100	97.8	97.6	100	96.5	
O=C1CN=C(c2ccccc2Br)c2cc(F)ccc2N1	99.1	99	99.1	99.1	98.9	99.2	99.2	99.1	99	99.2	99.1	98.7	99.2	99.1	99.2	99.3	98.9	99.1	99.1	98.7	
ClCCCSc1nnnn1-c1ccccc1	98.9	98.5	98.9	98.9	98.7	98.9	98.8	98.6	98.5	98.6	98.8	98.6	98.3	98.6	98.4	98.7	98.8	98.8	98.8	98.8	
O=C1CN=C(c2ccccc2Br)c2cc(F)ccc2N1CCCSc1nnnn1-c1ccccc1	99.8	99.8	99.7	99.9	99.8	99.8	99.9	99.7	99.8	99.7	99.8	99.7	99.9	99.9	99.8	99.9	99.8	99.8	100	99.7	
COc1ccc(-n2nnnc2SCCCN2C(=O)CN=C(c3ccccc3Br)c3cc(F)ccc32)cc1	98.5	98.8	98.6	98.8	98.1	98.8	98.8	98.8	98.7	98.9	98.9	98.7	98.7	98.8	98.8	98.6	98.5	98.7	98.8	98.8	
O=C1CN=C(c2ccccc2Br)c2cc(F)ccc2N1CCCn1nnc(-c2ccccc2)n1	98.4	99.4	99	100	98.5	98.9	99.6	98.4	99.6	98.9	98.4	99.4	99.5	99.8	99.3	98.4	99.8	98.5	100	98.6	
